Test results: paper PMC5532645, “Design, Synthesis, and Antifouling Activity of Glucosamine-Based Isocyanides” (Marine Drugs, 2017)
Values after ≈ are worked out from the molar mass of the structure shown. Like-named read-outs stand apart in the source and are kept apart here.

Experiments:
[1] = system: cypris larvae of the barnacle Amphibalanus amphitrite; conditions: cited from earlier work
[2] = system: cypris larvae of the barnacle Amphibalanus amphitrite; assay: Antifouling assay: settlement and mortality of barnacle cyprids after 48 h; assay type: in vivo; conditions: for EC50: Amphibalanus amphitrite, 48 h, read-out: EC50 (antifouling activity), cypris larvae, 48 h incubation, probit analysis; for toxicity / mortality of cypris larvae: at a concentration of 10 μg/mL
Protocol: (§1) Adult barnacles (Amphibalanus amphitrite) procured from oyster farms at Lake Hamana and a pier at Shimizu bay, Shizuoka, were kept in an aquarium at 20 °C and fed on Artemia salina nauplii. Broods were released as I–II stage nauplii upon immersion in seawater after drying overnight. The nauplii thus obtained were cultured in filtered natural seawater (salinity 28) containing penicillin G (20 μg/mL) and streptomycin sulfate (30 μg/mL) and were fed on the diatom Chaetoceros gracilis at concentrations of 40 × 10^4 cells/mL. […] The cyprids were collected and stored at 4 °C until use (0 days old).
(§2) The test compounds were dissolved in ethanol and aliquots of the solution were transferred to wells of a 24-well polystyrene culture plate and air-dried. Four wells were used for each concentration. To each well, filtered seawater (2.0 mL, salinity 28) and six 2-day-old cyprids were added. The plates were kept in the dark at 25 °C for 48 h. […] Three or four trials were done for each concentration. Probit analysis was used to calculate the EC50 values.

[3] = as above; assay type: in vivo; conditions: cypris larvae, 48 h incubation, read-out: LC50 (toxicity)
Protocol: as §1, §2

[4] = synthetic sample of 1 and its synthetic intermediates
[5] = Amphibalanus amphitrite (barnacle, in vivo, other: immersion in seawater holding the compound)

For `[C-]#[N+][C@@]1(C)CC[C@H](C(C)C)[C@H]2C=C(C)CC[C@@H]21` [Compound 1, 10-isocyano-4-cadinene], the “EC50 (antifouling activity)” value ([1]; natural compound obtained from nudibranchs) is given as 0.14 µg/mL (≈ 0.605 µM), the “LC50 (50% lethal concentration)” value ([1]; natural compound) is given as over 10 µg/mL and the “EC50 (antifouling activity)” value [1, 4] is given as 0.06 µg/mL (≈ 0.259 µM). For the same compound, the LC50 [1, 4] was over 10 µg/mL.
In the case of `CC1=C[C@H]2[C@H](CC1)[C@@H](O)CC[C@@H]2C(C)C` [Compound 2], the “EC50 (antifouling activity)” value [1, 4] is listed as 0.31 µg/mL (≈ 1.49 µM) and the LC50 [1, 4] is listed as over 10 µg/mL.
In the case of `[C-]#[N+][C@]1(C)CC[C@@H](/C(C)=C/C=C/C(C)C)CC1` [Compound 4, 3-isocyanotheonellin], the “EC50 (antifouling activity)” value ([1]; previously reported) is given as 0.19 µg/mL (≈ 0.821 µM) and the LC50 ([1]; previously reported) is given as over 10 µg/mL.
In the case of `[C-]#[N+][C@H]1[C@H](OC(C)=O)O[C@H](COC(C)=O)[C@@H](OC(C)=O)[C@@H]1OC(C)=O` [Compound 6a], the EC50 [2] was over 5 µg/mL, the “toxicity / mortality of cypris larvae” value [2] was “lethal larva was not observed” and the LC50 at 48 h [3, 5] was over 10 µg/mL.
In the case of `[C-]#[N+][C@H]1[C@H](OC(=O)CCCCCCCCCCCCCCC)O[C@H](COC(=O)CCCCCCCCCCCCCCC)[C@@H](OC(=O)CCCCCCCCCCCCCCC)[C@@H]1OC(=O)CCCCCCCCCCCCCCC` [Compound 6b], the EC50 [2] was over 5 µg/mL, the “toxicity / mortality of cypris larvae” value [2] was “lethal larva was not observed” and the LC50 at 48 h [3, 5] was over 10 µg/mL.
Compound `[C-]#[N+][C@H]1[C@H](Oc2ccccc2)O[C@H](COC(C)=O)[C@@H](OC(C)=O)[C@@H]1OC(C)=O` [Compound 6c] has an EC50 [2] of 0.71 µg/mL (≈ 1.81 µM) and an LC50 at 48 h [3, 5] of over 10 µg/mL.
In the case of `[C-]#[N+][C@H]1[C@H](OCc2ccccc2)O[C@H](COC(C)=O)[C@@H](OC(C)=O)[C@@H]1OC(C)=O` [Compound 6d], the EC50 [2] was 0.7 µg/mL (≈ 1.73 µM) and the LC50 at 48 h [3, 5] was over 10 µg/mL.
`[C-]#[N+][C@H]1[C@H](OCC=C)O[C@H](COC(C)=O)[C@@H](OC(C)=O)[C@@H]1OC(C)=O` [Compound 6e] gave an EC50 [2] of 0.37 µg/mL (≈ 1.04 µM) and an LC50 at 48 h [3, 5] of over 10 µg/mL.
`[C-]#[N+][C@H]1[C@H](OC(C)C)O[C@H](COC(C)=O)[C@@H](OC(C)=O)[C@@H]1OC(C)=O` [Compound 6f] gave an EC50 [2] of 0.23 µg/mL (≈ 0.644 µM) and an LC50 at 48 h [3, 5] of over 10 µg/mL.
`[C-]#[N+][C@H]1[C@H](OCC(F)(F)F)O[C@H](COC(C)=O)[C@@H](OC(C)=O)[C@@H]1OC(C)=O` [Compound 6g] showed an EC50 [2] of 0.36 µg/mL (≈ 0.906 µM) and an LC50 at 48 h [3, 5] of over 10 µg/mL.
`[C-]#[N+][C@H]1[C@H](OC(C)C)O[C@H](COC(=O)CCCCCCC)[C@@H](OC(=O)CCCCCCC)[C@@H]1OC(=O)CCCCCCC` [Compound 6h] showed an EC50 [2] of 0.79 µg/mL (≈ 1.3 µM) and an LC50 at 48 h [3, 5] of over 10 µg/mL.
With `[C-]#[N+][C@H]1[C@H](OC(C)C)O[C@H](COC(=O)CCCCCCCCCCCCCCC)[C@@H](OC(=O)CCCCCCCCCCCCCCC)[C@@H]1OC(=O)CCCCCCCCCCCCCCC` [Compound 6i] the EC50 [2] was 0.31 µg/mL (≈ 0.328 µM) and the LC50 at 48 h [3, 5] was over 10 µg/mL.
`[C-]#[N+][C@H]1[C@H](OC(C)C)O[C@H](COC(=O)c2ccccc2)[C@@H](OC(=O)c2ccccc2)[C@@H]1OC(=O)c1ccccc1` [Compound 6j] gave an EC50 [2] of 0.81 µg/mL (≈ 1.49 µM) and an LC50 at 48 h [3, 5] of over 10 µg/mL.
Work on `[C-]#[N+][C@H]1[C@H](OC(C)C)O[C@H](CO[Si](C)(C)C(C)(C)C)[C@@H](O[Si](C)(C)C(C)(C)C)[C@@H]1O[Si](C)(C)C(C)(C)C` [Compound 6k] yielded an EC50 [2] of 0.25 µg/mL (≈ 0.436 µM) and an LC50 at 48 h ([3]; Amphibalanus amphitrite (barnacle, in vivo)) of over 10 µg/mL.
For `O=S(=O)([O-])[O-].[Cu+2]` [CuSO4], the “EC50 (antifouling activity)” value ([1]; CuSO4 used as a fouling inhibitor) is listed as 0.27 µg/mL.
